Experimental data: patent US20220169680A1 (priority 2018, published 2022)

System: A549 cells
Type: cell-based

Sequence	ability to carry small RNA into cells compared with the transfection reagent RNAiMax group, qPCR	ability to carry small RNA (PGY-sRNA-26) into cells, qPCR
DRKRRKCKYRRKKYGRKR [Jilin-2004(H5N1)-M2-44-61 mut14]	stronger than the transfection reagent RNAiMax group	–
MSLLTEVETPTRNGWECRCSDSSD [Jilin-2004(H5N1)-M2-1-24]	–	Only the polypeptide Jilin-2004(H5N1)-M2-45-62 had the ability to carry small RNA into the cells
PLVVAASIIGILHLILWIL [Jilin-2004(H5N1)-M2-25-43]	–	Only the polypeptide Jilin-2004(H5N1)-M2-45-62 had the ability to carry small RNA into the cells
RAFFKCIYRRLKYGLKRG [Jilin-2004(H5N1)-M2-45-62 mut46]	stronger than the transfection reagent RNAiMax group	–
RFFFKCFYRRLKYGLKRG [Jilin-2004(H5N1)-M2-45-62 mut8]	stronger than the transfection reagent RNAiMax group	–
RLFFKCIKRRLKYGLKRG [Jilin-2004(H5N1)-M2-45-62 mut52]	stronger than the transfection reagent RNAiMax group	–
RLFFKCIYRRAKYGLKRG [Jilin-2004(H5N1)-M2-45-62 mut55]	stronger than the transfection reagent RNAiMax group	–
RLFFKCIYRRLKYGAKRG [Jilin-2004(H5N1)-M2-45-62 mut59]	stronger than the transfection reagent RNAiMax group	–
RLFFKCIYRRLTYGLKRG [Jilin-2004(H5N1)-M2-45-62 mut56]	stronger than the transfection reagent RNAiMax group	–
RLFFKCIYSRLKYGLKRG [Jilin-2004(H5N1)-M2-45-62 mut53]	stronger than the transfection reagent RNAiMax group	–
RLFFRCIYRRLKYGLKRG [Jilin-2004(H5N1)-M2-45-62 mut1]	stronger than the transfection reagent RNAiMax group	–
RLIFKCIYRRLKYGLKRG [Jilin-2004(H5N1)-M2-45-62 mut47]	stronger than the transfection reagent RNAiMax group	–
RRFFFKCFFRRFKFGLKRGPST [Jilin-2004(H5N1)-M2-44-65 mut7]	stronger than the transfection reagent RNAiMax group	–
RRLFFKCIYRRLKYGLKR [Jilin-2004(H5N1)-M2-44-61 mut1]	stronger than the transfection reagent RNAiMax group	–
RRLFFKCIYRRLKYGLKRGPST [Jilin-2004(H5N1)-M2-44-65 mut15]	stronger than the transfection reagent RNAiMax group	–

System: A549 cells
Type: cell-based
Remark: another data set of the same source

Sequence	cell-penetrating peptide function compared with the parent polypeptide	cell entry signal / cell entry properties
DRKRRKCKYRRKKYGRKR [Jilin-2004(H5N1)-M2-44-61 mut14]	stronger than that of the parent Jilin-2004(H5N1)-M2-44-61 polypeptide	–
MSLLTEVETPTRNGWECRCSDSSD [Jilin-2004(H5N1)-M2-1-24]	–	no cell entry signal was detected
PLVVAASIIGILHLILWIL [Jilin-2004(H5N1)-M2-25-43]	–	no cell entry signal was detected

System: A549 cells
Type: cell-based
Remark: another data set of the same source

Sequence	cell entry of rhodamine-labeled polypeptide	cell-penetrating peptide function compared with the parent polypeptide (confocal imaging)
KRGPSTAGVPESMREEYRQEQQN [A/HongKong/97/98(H5N1)-M2-N-M-AH(60-82)]	did not enter the cells	–
KRGPSTEGVPESMREEYREEQQN [Caledonia/20/1999(H1N1)-M2-N-M-AH(60-82)]	did not enter the cells	–
RFFFRRFFRRFRFRFRRR [Jilin-2004(H5N1)-M2-45-62 mut13]	–	stronger than that of the parent Jilin-2004(H5N1)-M2-45-62 polypeptide
RLFFKCIYRRLKYGLKRG [A/HongKong/97/98(H5N1)-M2-N-M-AH(45-62)]	could all enter A549 cells	–
RLFFKIIYRRLKYGLKRG [Jilin-2004(H5N1)-M2-45-62 mut50]	–	stronger than that of the parent Jilin-2004(H5N1)-M2-45-62 polypeptide
RLFFRRIYRRLKYGLKRG [Jilin-2004(H5N1)-M2-45-62 mut2]	–	stronger than that of the parent Jilin-2004(H5N1)-M2-45-62 polypeptide
